Results: patent publication US4892883A, “Pharmaceutical compositions containing bilobalide for the treatment of neuropathies Ai” (Willman - Schwabe GmbH & Co., priority 1973, dated 1990)

Experiments:
[1] = test system: existent neuropathies, neurological and mental functions; assay: Clinical investigations; format: in vivo
[2] = test system: neuropathy on the triethyltin chloride model; assay: Protective action against TET-induced neuropathy, hotplate test (Experiment 4, Table III); format: in vivo, rat (Sprague-Dawley); details: TET 0.002%
Method: The investigations of the protective action against damage to myelin and its expression as neuropathy is likewise carried out on the triethyltin chloride model. When the animals are treated not for 14 days but for only 6 days with a 0.002 per cent TET solution administered in place of the drinking water, they show various signs of neuropathy although no cerebral oedema is detectable in this period. The neuropathy is quantified by measuring the consumption of food and water and by the changes in body weight. In addition, as a specific parameter, the pain reaction time in a hotplate test (at 50° C.) is measured (J. Pharm. Pharmacol., 9 (1957), 381).

Monilia fructicola = details: cited from earlier work
mouse ear = details: cited from earlier work
[3] = test system: male Sprague-Dawley rats given triethyltin chloride (brain water and electrolyte contents); assay: Protective effect against triethyltin chloride (TET) intoxication (Experiment 1, Table I); format: in vivo, rat (Sprague-Dawley); details: for Brain % water / Brain K^+ / Brain Na^+ / Brain Na^+ /K^+ / Mean body weight, 14 days / Mean body weight, initial: TET 0.002%
Method: Male Sprague-Dawley rats (200-300 g body weight) are offered an aqueous solution containing 0.002 per cent triethyltin chloride (abbreviated to TET) as drinking liquid for 14 days. Control animals received water. The Gingko biloba monoextract (EGB) with or without bilobalide and the various test substances are administered orally 1×daily throughout these 14 days. On day 15, the animals are sacrificed, the brain is removed and its water and electrolyte contents are determined. The body weight of the animals during the experiment is checked daily.

[4] = test system: neuropathy on the triethyltin chloride model; assay: Curative action on TET-induced neuropathy, hotplate test (Experiment 5, Table IV); format: in vivo, rat (Sprague-Dawley); details: for Body weight after intoxication / Food consumption after intoxication / Hotplate reaction time after intoxication / Water consumption after intoxication: after 6 days TET, before treatment
Method: In a similar manner, the curative action of bilobalid or extract containing bilobalide is investigated. The animals are offered a 0.002 per cent TET solution in place of drinking water for 6 days. Subsequently (from the 7th day), the TET solution is replaced by tap water and, simultaneously, the daily oral treatment is started. Treatment is continued for 6 days. The measured parameters (body weight, consumption of food and water, hotplate reaction time) are determined on the 6th day before the treatment and on the 14th day after the treatment.

Escherichia coli = details: cited from earlier work
[5] = test system: neuropathy on the triethyltin chloride model; assay: Protective action against TET-induced neuropathy, hotplate test (Experiment 4, Table III); format: in vivo, rat (Sprague-Dawley); details: overall conclusion of Experiments 1 to 5
Penicillium glaucum = details: cited from earlier work
[6] = test system: cholinergic mechanisms of the central nervous system; assay: Stimulating effect on cholinergic mechanisms of the central nervous system; details: in vivo
Method: The stimulating effects of the extract on the cholinergic system of the central nervous system were determined in various experiments. In one of these experiments the influence of the extract on the spontaneous climbing behaviour (SCB) was examined according to the method described by Marcais et al. (Psychopharmacology; 56, 233-234, 1978).

[7] = test system: male Sprague-Dawley rats given hexachlorophene (brain water and electrolyte contents); assay: Protective effect against hexachlorophene intoxication (Experiment 2, Table II); format: in vivo, rat (Sprague-Dawley); details: hexachlorophene i.p.
Method: In another experiment, male Sprague-Dawley rats (200-250 g body weight) receive intraperitoneal injections of 20 mg/kg hexachlorophene (suspended in 0.2% agar) for 2 days and only 10 mg/kg on the 3rd day. The test substances are administered orally after administration of hexachlorophene.
The control animals receive only 0.2% agar i.p. or tap water orally. On the 4th day, the animals are sacrificed and the water and electrolyte contents in the brain are determined. The body weight of the animals is measured daily throughout the 4 days.

[8] = 5 mg/kg p.o. daily 6 days after TET
[9] = 10 mg/kg p.o. daily 6 days after TET

For `CC(C)(C)C1(O)CC2OC(=O)CC23C(=O)OC2OC(=O)C(O)C231` (centres unmarked) [Bilobalide, bilobalide], which “effects on existent neuropathies, neurological and mental functions” value [1] is on record?
Its value is “favourable effects on existent neuropathies, neurological and mental functions”.

What about the “Food consumption, final” value ([2]; 10 mg/kg/day p.o. 6 days) of the same compound?
Its value is 22.1 g/animal/day.

What about the “Mean body weight, final” value ([2]; 10 mg/kg/day p.o. 6 days) of the same compound?
The value was 261 g.

And the “Water consumption, final” value ([2]; 10 mg/kg/day p.o. 6 days)?
Its value is 21.9 ml/animal/day.

What about the “Hotplate reaction time, final” value ([2]; 10 mg/kg/day p.o. 6 days, 50° C.) of the same compound?
The value was 17.9 s.

And the “Hotplate reaction time, initial” value ([2]; 10 mg/kg/day p.o., 50° C., initial)?
The value was 28.9 s.

And the “Food consumption, initial” value ([2]; 10 mg/kg/day p.o., initial)?
The value was 24.3 g/animal/day.

And the “Mean body weight, initial” value ([2]; 10 mg/kg/day p.o., initial)?
The value was 241 g.

What about the “Water consumption, initial” value ([2]; 10 mg/kg/day p.o., initial) of the same compound?
The value was 35.1 ml/animal/day.

And the “protective action against neuropathic signs” value ([2]; oral, 6 days)?
Its value is “good protective action against the neuropathic signs”.

And the fungicidal action (Monilia fructicola)?
Its fungicidal action is “no fungicidal action”.

And the inflammatory action (mouse ear)?
The inflammatory action was “no inflammatory action”.

What about the Brain % water ([3]; 5 mg/kg p.o. 1×daily 14 days) of the same compound?
The Brain % water was 78.57 ± 0.19%.

What about the “Brain K^+” value ([3]; 5 mg/kg p.o. 1×daily 14 days) of the same compound?
Its value is 418.9 ± 14.4 mmol/kg dry weight.

What about the “Brain Na^+” value ([3]; 5 mg/kg p.o. 1×daily 14 days) of the same compound?
The value was 162.6 ± 5.4 mmol/kg dry weight.

What about the “Brain Na^+ /K^+” value ([3]; 5 mg/kg p.o. 1×daily 14 days) of the same compound?
Its value is 0.39 ± 0.020.

What about the “Mean body weight, 14 days” value ([3]; 5 mg/kg p.o. 1×daily 14 days) of the same compound?
The value was 323 g.

And the “Mean body weight, initial” value ([3]; 5 mg/kg p.o. 1×daily)?
The value was 288 g.

And the Brain % water ([3]; 10 mg/kg p.o. 1×daily 14 days)?
Its Brain % water is 78.16 ± 0.09%.

What about the “Brain K^+” value ([3]; 10 mg/kg p.o. 1×daily 14 days) of the same compound?
The value was 452.7 ± 12.9 mmol/kg dry weight.

What about the “Brain Na^+” value ([3]; 10 mg/kg p.o. 1×daily 14 days) of the same compound?
The value was 198.3 ± 2.74 mmol/kg dry weight.

What about the “Brain Na^+ /K^+” value ([3]; 10 mg/kg p.o. 1×daily 14 days) of the same compound?
Its value is 0.44 ± 0.04.

And the “Mean body weight, 14 days” value ([3]; 10 mg/kg p.o. 1×daily 14 days)?
Its value is 318 g.

What about the “Mean body weight, initial” value ([3]; 10 mg/kg p.o. 1×daily) of the same compound?
Its value is 272 g.

And the Brain % water ([3]; 20 mg/kg p.o. 1×daily 14 days)?
Its Brain % water is 77.75 ± 0.11%.

What about the “Brain K^+” value ([3]; 20 mg/kg p.o. 1×daily 14 days) of the same compound?
Its value is 400.6 mmol/kg dry weight.

And the “Brain Na^+” value ([3]; 20 mg/kg p.o. 1×daily 14 days)?
Its value is 187.9 ± 10.4 mmol/kg dry weight.

And the “Brain Na^+ /K^+” value ([3]; 20 mg/kg p.o. 1×daily 14 days)?
Its value is 0.45 ± 0.05.

And the “Mean body weight, 14 days” value ([3]; 20 mg/kg p.o. 1×daily 14 days)?
Its value is 325 g.

And the “Mean body weight, initial” value ([3]; 20 mg/kg p.o. 1×daily)?
The value was 288 g.

What about the “protective effect against decrease in body weight and increase in brain water and Na^+” value ([3]; oral, TET 14 days) of the same compound?
The value was “good protective effect”.

And the “Body weight after treatment” value [4, 8]?
The value was 242 g.

And the “Food consumption after treatment” value [4, 8]?
The value was 17.4 g/animal/day.

And the “Hotplate reaction time after treatment” value [4, 8]?
Its value is 61.58 s.

What about the “Water consumption after treatment” value [4, 8] of the same compound?
Its value is 31.4 ml/animal/day.

And the “Body weight after intoxication” value ([4]; 5 mg/kg p.o. group)?
Its value is 236 g.

And the “Food consumption after intoxication” value ([4]; 5 mg/kg p.o. group)?
The value was 10.4 g/animal/day.

What about the “Hotplate reaction time after intoxication” value ([4]; 5 mg/kg p.o. group) of the same compound?
The value was 88.1 ± 5.67 s.

And the “Water consumption after intoxication” value ([4]; 5 mg/kg p.o. group)?
The value was 11.4 ml/animal/day.

What about the “Body weight after treatment” value [4, 9] of the same compound?
The value was 232 g.

And the “Food consumption after treatment” value [4, 9]?
The value was 18.6 g/animal/day.

What about the “Hotplate reaction time after treatment” value [4, 9] of the same compound?
The value was 48.58 ± 18.44 s.

What about the “Water consumption after treatment” value [4, 9] of the same compound?
Its value is 23.1 ml/animal/day.

And the “Body weight after intoxication” value ([4]; 10 mg/kg p.o. group)?
Its value is 227 g.

And the “Food consumption after intoxication” value ([4]; 10 mg/kg p.o. group)?
Its value is 8.9 g/animal/day.

What about the “Hotplate reaction time after intoxication” value ([4]; 10 mg/kg p.o. group) of the same compound?
The value was 87.36 ± 7.46 s.

And the “Water consumption after intoxication” value ([4]; 10 mg/kg p.o. group)?
Its value is 12.7 ml/animal/day.

What about the “regression of pre-existent damage” value ([4]; overall conclusion) of the same compound?
The value was “pre-existent damage can be made to regress more quickly”.

What about the bactericidal action (Escherichia coli) of the same compound?
The bactericidal action was “nor any bactericidal action”.

What about the “prevention of neurotoxic signs and of cerebral oedema” value [5] of the same compound?
The value was “prevents the occurrence of neurotoxic signs and of cerebral oedema”.

What about the fungicidal action (Penicillium glaucum) of the same compound?
Its fungicidal action is “no fungicidal action”.

And the “stimulating effect on cholinergic mechanisms of the central nervous system” value [6]?
The value was “stimulating effect on the cholinergic mechanisms of the central nervous system”.

What about the “Mean body weight, 4th day” value ([7]; 5 mg/kg p.o.) of the same compound?
Its value is 270 g.

What about the Brain % water ([7]; 5 mg/kg p.o., 4th day) of the same compound?
The Brain % water was 77.93 ± 0.17%.

And the “Brain K^+” value ([7]; 5 mg/kg p.o., 4th day)?
The value was 414.5 ± 4.4 mmol/kg dry weight.

What about the “Brain Na^+” value ([7]; 5 mg/kg p.o., 4th day) of the same compound?
The value was 187.9 ± 4.0 mmol/kg dry weight.

And the “Brain Na^+ /K^+” value ([7]; 5 mg/kg p.o., 4th day)?
The value was 0.45 ± 0.01.

What about the “Mean body weight, initial” value ([7]; 5 mg/kg p.o., initial) of the same compound?
Its value is 264 g.

And the “protection from cerebral oedema and reduction in body weight” value ([7]; oral)?
Its value is “protects the animals from the development of cerebral oedema and prevents the reduction in body weight”.
